Among the data in patent publication US20210198256A1, “COMPOUNDS FOR THE DEGRADATION OF BRD9 OR MTH1” (C4 Therapeutics, Inc., priority 2018, published 2021) are DC50 values, retold here.

For this assay, the system named is SMARTCAR-MTH1-wt-HiBiT (Jurkat.7 cells). The assay can be described thus: HiBit Lytic Assay (HiBit DC50, MTH1 degraders of Table 2). In kind it is cell-based, human. The following applies: Jurkat.7 SMARTCAR-MTH1-wt-HiBiT cells, compound treatment time 4 hr, 11-point half log dose response. On the procedure: Example 3. HiBit Lytic Assay
• Compound is made at 10 mM, half log dilution, 11 points. • MDR plates can also be ordered from Frontier with same format. • 1. Barcode a 384LDV plate (384-well Low Dead Volume Microplate, Labcyte LP-0200) (Echo compatible) on the left side. • 2. Transfer 13.6 μL of 10 mM compound into column 1 of LDV plate (Labcyte). • 3. Fill column 2-11 and column 23 of MDR plate with 9.30 μL of DMSO. • 4. Serial dilute 3.16 fold from column 1 to 2 by transferring 4.30 μL from column 1 to column 2, and so on to column 11. *Change tip in every dilution to prevent compound carryover effect! • 5. Seal the plate with Plate Sealer, then store the MDR plate at room temperature for short term storage and in −20° C. for long term storage.
• Cells are treated with 30 nL of each compound at 10 mM, half log dilution, 11 points with final concentration of 1000 nM or 833 nM, half log dilution, 11 points, in duplicates. Final DMSO concentration is 0.1%. • 1. Barcode the plates made on the left side and label the plates with silver marker. • 2. Dispense with the following scheme: • a. 30 nL of compound into corresponding wells in cell plates via Echo550 with “MDR32_HiBiT16_30 nL”. Top concentration will be 1000 nM. • 3. Seal the plate with Plate Sealer.
• Cells are dispensed at density specified in Cell Line Table in 384-well microplate. • 1. Culture cells to between 50-80% of confluence in sterile culture flasks of appropriate size. • 2. For Adherent Cell Lines: • a. Aspirate off growth media in culture flask, and wash off the Phenol Red media with 5 mL of 1×PBS. • b. Add 5 mL of Trypsin to the cells, incubate at 37° C. for 5 minutes. • c. Add 5 mL of growth media to the trypsinzed cells, and resuspend. • 3. Remove 10 μL of cells, and resuspend the cells with 10 μL of Trypan Blue. Insert the solution to counting chamber slide, and count the cells via cell counter. • 4. Adjust the cell concentration to specified plating density, and strain the cells with cell strainer. • 5. Dispense the cells via E1-ClipTip™ Electronic Multichannel Pipettes or Multidrop™ Combi Reagent Dispenser with Standard tube dispensing cassette: • a. Prime the cassette with 10-20 mL of ddH2O. • b. Prime the cassette with 10-20 mL of cells. • c. Dispense the cells at low speed for 30 μL/well in Corning® 384 Well Low Flange Black Flat Bottom Polystyrene TC-Treated Microplate. • d. Wash the cassette with 10-20 mL of ddH2O, follow by 10-20 mL of 70% EtOH, then again with 10-20 mL of ddH2O. • 6. Incubate the plates at 37° C.×compound treatment time.
• 1. If not already, bring Nano-Glo® HiBiT Lytic Buffer to room temperature. • 2. Determine the amount of reagent needed. A volume of reagent equal to the volume of media in the well should be added (i.e. 30 μL of cells will need 30 μL of HiBiT Lytic reagent). • 3. Into a given volume of buffer, dilute the substrate 50-fold and the LgBiT protein 100-fold. For example, to make 10 ml of reagent, add the following: • 10 ml Nano-Glo® HiBiT Lytic Buffer • 200 μl Nano-Glo® HiBiT Lytic Substrate • 100 μl LgBiT Protein • The reagent should be reconstituted immediately before use. However, once reconstituted, it should take about 4 hours for the activity to decrease 10%. • 4. Cool down the cell plate to room temperature for 10-15 minutes without lid. • 5. Dispense the HiBiT Lytic Reagent via E1-ClipTip™ Electronic Multichannel Pipettes or Multidrop™ Combi Reagent Dispenser with Standard tube dispensing cassette: • a. Prime the cassette with 10-20 mL of ddH2O. • b. Prime the cassette with 10-20 mL of CTG 2.0. • c. Dispense the HiBiT Lytic Reagent at medium speed for 30 μL/well in cell plate to column 1-23 (column 24 will be used as plate background). • d. Wash the cassette with 10-20 mL of ddH2O, follow by 10-20 mL of 70% EtOH, then again with 10-20 mL of ddH2O. • 6. Incubate the cell plate at room temperature for 10 minutes without lid. • 7. […]
`CNC(=O)c1cnc2ccc(-c3ccc(C(=O)NCCCCNC(=O)C(C)Nc4cccc5c4C(=O)N(C4CCC(=O)NC4=O)C5=O)cc3)cc2c1Nc1ccccc1` (stereo not shown) [Compound 346, 4-anilino-6-[4-[4-[2-[[2-(2,6-dioxo-3-piperidyl)-1,3-dioxo-isoindolin-4-yl]amino]propanoylamino]butylcarbamoyl]phenyl]-N-methyl-quinoline-3-carboxamide]: the DC50 was less than 100 nM.

Compound `CNC(=O)c1cnc2ccc(N3CCC(C(=O)NCCCCNC(=O)COc4cccc5c4C(=O)N(C4CCC(=O)NC4=O)C5=O)CC3)cc2c1Nc1ccccc1` (stereo not shown) [Compound 347, 4-anilino-6-[4-[4-[[2-[2-(2,6-dioxo-3-piperidyl)-1,3-dioxo-isoindolin-4-yl]oxyacetyl]amino]butylcarbamoyl]-1-piperidyl]-N-methyl-quinoline-3-carboxamide] displayed a DC50 of less than 100 nM.

`CNC(=O)c1cnc2ccc(-c3ccc(C(=O)NCCCCNC(=O)COc4cccc5c4C(=O)N(C4CCC(=O)NC4=O)C5=O)c(F)c3)cc2c1Nc1ccccc1` (stereo not shown) [Compound 351, 4-anilino-6-[4-[4-[[2-[2-(2,6-dioxo-3-piperidyl)-1,3-dioxo-isoindolin-4-yl]oxyacetyl]amino]butylcarbamoyl]-3-fluoro-phenyl]-N-methyl-quinoline-3-carboxamide] displayed a half-maximal degradation concentration (DC50) of less than 100 nM.

`CNC(=O)c1cnc2ccc(-c3ccc(C(=O)NCCCCNC(=O)CNc4cccc5c4C(=O)N(C4CCC(=O)NC4=O)C5=O)c(C)c3)cc2c1Nc1ccccc1` (stereo not shown) [Compound 353, 4-anilino-6-[4-[4-[[2-[[2-(2,6-dioxo-3-piperidyl)-1,3-dioxo-isoindolin-4-yl]amino]acetyl]amino]butylcarbamoyl]-3-methyl-phenyl]-N-methyl-quinoline-3-carboxamide] gave a half-maximal degradation concentration (DC50) of less than 100 nM.

In turn, `CNC(=O)c1cnc2ccc(-c3ccc(C(=O)NCCCCNC(=O)COc4cccc5c4C(=O)N(C4CCC(=O)NC4=O)C5=O)c(C)c3)cc2c1Nc1ccccc1` (stereo not shown) [Compound 354, 4-anilino-6-[4-[4-[[2-[2-(2,6-dioxo-3-piperidyl)-1,3-dioxo-isoindolin-4-yl]oxyacetyl]amino]butylcarbamoyl]-3-methyl-phenyl]-N-methyl-quinoline-3-carboxamide] showed a DC50 of less than 100 nM.

In turn, `CNC(=O)c1cnc2ccc(-c3ccc(C(=O)NCCCCn4cc(CNc5cccc6c5C(=O)N(C5CCC(=O)NC5=O)C6=O)nn4)cc3)cc2c1Nc1ccccc1` (stereo not shown) [Compound 356, 4-anilino-6-[4-[4-[4-[[[2-(2,6-dioxo-3-piperidyl)-1,3-dioxo-isoindolin-4-yl]amino]methyl]triazol-1-yl]butylcarbamoyl]phenyl]-N-methyl-quinoline-3-carboxamide] had a DC50 of less than 100 nM.

Take `CNC(=O)c1cnc2ccc(-c3ccc(C(=O)NCCCCNC(=O)COc4cccc5c4C(=O)N(C4CCC(=O)NC4=O)C5=O)nc3)cc2c1Nc1ccccc1` (stereo not shown) [Compound 357, 4-anilino-6-[6-[4-[[2-[2-(2,6-dioxo-3-piperidyl)-1,3-dioxo-isoindolin-4-yl]oxyacetyl]amino]butylcarbamoyl]-3-pyridyl]-N-methyl-quinoline-3-carboxamide]: the DC50 was less than 100 nM.

For `CNC(=O)c1cnc2ccc(-c3ccc(C(=O)NCCCCNC(=O)CNc4cccc5c4C(=O)N(C4CCC(=O)NC4=O)C5=O)nc3)cc2c1Nc1ccccc1` (stereo not shown) [Compound 358, 4-anilino-6-[6-[4-[[2-[[2-(2,6-dioxo-3-piperidyl)-1,3-dioxo-isoindolin-4-yl]amino]acetyl]amino]butylcarbamoyl]-3-pyridyl]-N-methyl-quinoline-3-carboxamide], the DC50 was less than 100 nM.

On to `CNC(=O)c1cnc2ccc(-c3ccc(C(=O)NCCCCN4CCN(c5cccc6c5C(=O)N(C5CCC(=O)NC5=O)C6=O)CC4)cc3)cc2c1Nc1ccccc1` (stereo not shown) [Compound 359, 4-anilino-6-[4-[4-[4-[2-(2,6-dioxo-3-piperidyl)-1,3-dioxo-isoindolin-4-yl]piperazin-1-yl]butylcarbamoyl]phenyl]-N-methyl-quinoline-3-carboxamide], for which the DC50 is less than 100 nM.

As to `CNC(=O)c1cnc2ccc(-c3cnn(CCCCCCNC(=O)COc4cccc5c4C(=O)N(C4CCC(=O)NC4=O)C5=O)c3)cc2c1Nc1ccccc1` (stereo not shown) [Compound 360, 4-anilino-6-[1-[6-[[2-[2-(2,6-dioxo-3-piperidyl)-1,3-dioxo-isoindolin-4-yl]oxyacetyl]amino]hexyl]pyrazol-4-yl]-N-methyl-quinoline-3-carboxamide], the 50% degradation concentration (DC50) was less than 100 nM.

In turn, `CNC(=O)c1cnc2ccc(-c3ccc(C(=O)NCCCNC(=O)C(C)Nc4cccc5c4C(=O)N(C4CCC(=O)NC4=O)C5=O)cc3)cc2c1Nc1ccccc1` (stereo not shown) [Compound 363, 4-anilino-6-[4-[3-[2-[[2-(2,6-dioxo-3-piperidyl)-1,3-dioxo-isoindolin-4-yl]amino]propanoylamino]propylcarbamoyl]phenyl]-N-methyl-quinoline-3-carboxamide] displayed a DC50 of less than 100 nM.

`CNC(=O)c1cnc2ccc(-c3ccc(NCCCCNC(=O)CNc4cccc5c4C(=O)N(C4CCC(=O)NC4=O)C5=O)nc3)cc2c1Nc1ccccc1` (stereo not shown) [Compound 365, 4-anilino-6-[6-[4-[[2-[[2-(2,6-dioxo-3-piperidyl)-1,3-dioxo-isoindolin-4-yl]amino]acetyl]amino]butylamino]-3-pyridyl]-N-methyl-quinoline-3-carboxamide]: the DC50 is less than 100 nM.

`CNC(=O)c1cnc2ccc(-c3ccc(C(=O)NCCCCNC(=O)C(C)Nc4cccc5c4C(=O)N(C4CCC(=O)NC4=O)C5=O)c(F)c3)cc2c1Nc1ccccc1` (stereo not shown) [Compound 372, 4-anilino-6-[4-[4-[2-[[2-(2,6-dioxo-3-piperidyl)-1,3-dioxo-isoindolin-4-yl]amino]propanoylamino]butylcarbamoyl]-3-fluoro-phenyl]-N-methyl-quinoline-3-carboxamide]: the half-maximal degradation concentration (DC50) was less than 100 nM.

On to `CNC(=O)c1cnc2ccc(-c3ccc(C(=O)NCCCCNC(=O)CCc4cccc5c4CN(C4CCC(=O)NC4=O)C5=O)cc3)cc2c1Nc1ccccc1` (stereo not shown) [Compound 374, 4-anilino-6-[4-[4-[3-[2-(2,6-dioxo-3-piperidyl)-1-oxo-isoindolin-4-yl]propanoylamino]butylcarbamoyl]phenyl]-N-methyl-quinoline-3-carboxamide], for which the DC50 is less than 100 nM.

Compound `CNC(=O)c1cnc2cc(C(F)(F)F)c(-c3ccc(C(=O)NCCCCNC(=O)CNc4cccc5c4C(=O)N(C4CCC(=O)NC4=O)C5=O)c(F)c3)cc2c1Nc1ccccc1` (stereo not shown) [Compound 375, 6-(4-((4-(2-((2-(2,6-dioxopiperidin-3-yl)-1,3-dioxoisoindolin-4-yl)amino)acetamido)butyl)carbamoyl)-3-fluorophenyl)-N-methyl-4-(phenylamino)-7-(trifluoromethyl)quinoline-3-carboxamide] registered a DC50 of less than 100 nM.

On to `CNC(=O)c1cnc2cc(OC)c(-c3ccc(C(=O)NCCCCn4cc(CNc5cccc6c5C(=O)N(C5CCC(=O)NC5=O)C6=O)nn4)cn3)cc2c1Nc1ccccc1` (stereo not shown) [Compound 376, 6-(5-((4-(4-(((2-(2,6-dioxopiperidin-3-yl)-1,3-dioxoisoindolin-4-yl)amino)methyl)-1H-1,2,3-triazol-1-yl)butyl)carbamoyl)pyridin-2-yl)-7-methoxy-N-methyl-4-(phenylamino)quinoline-3-carboxamide], for which the half-maximal degradation concentration (DC50) was less than 100 nM.
